US12016864B2, “LOX enzyme inhibiting methods and compositions” (ANOVIA BIOSCIENCES, INC., priority 2021, dated 2024)
pIC50: −log10 of the molar value.

How the values were obtained:
[1] = target: T1, Recombinant human LOXL2 (lysyl oxidase like 2) (Homo sapiens, UniProt Q9Y4K0); test: LOXL2 inhibition assay, fluorometric (cadaverine / HRP / Amplex Red); type: biochemical; details: recombinant human LOXL2 130 nM; 30 min preincubation at 37° C.; 2.5 mM cadaverine; read-out: Activity Range LOXL2
T1 construct: purchased R&D systems
T1 sequence (Q9Y4K0 26-774): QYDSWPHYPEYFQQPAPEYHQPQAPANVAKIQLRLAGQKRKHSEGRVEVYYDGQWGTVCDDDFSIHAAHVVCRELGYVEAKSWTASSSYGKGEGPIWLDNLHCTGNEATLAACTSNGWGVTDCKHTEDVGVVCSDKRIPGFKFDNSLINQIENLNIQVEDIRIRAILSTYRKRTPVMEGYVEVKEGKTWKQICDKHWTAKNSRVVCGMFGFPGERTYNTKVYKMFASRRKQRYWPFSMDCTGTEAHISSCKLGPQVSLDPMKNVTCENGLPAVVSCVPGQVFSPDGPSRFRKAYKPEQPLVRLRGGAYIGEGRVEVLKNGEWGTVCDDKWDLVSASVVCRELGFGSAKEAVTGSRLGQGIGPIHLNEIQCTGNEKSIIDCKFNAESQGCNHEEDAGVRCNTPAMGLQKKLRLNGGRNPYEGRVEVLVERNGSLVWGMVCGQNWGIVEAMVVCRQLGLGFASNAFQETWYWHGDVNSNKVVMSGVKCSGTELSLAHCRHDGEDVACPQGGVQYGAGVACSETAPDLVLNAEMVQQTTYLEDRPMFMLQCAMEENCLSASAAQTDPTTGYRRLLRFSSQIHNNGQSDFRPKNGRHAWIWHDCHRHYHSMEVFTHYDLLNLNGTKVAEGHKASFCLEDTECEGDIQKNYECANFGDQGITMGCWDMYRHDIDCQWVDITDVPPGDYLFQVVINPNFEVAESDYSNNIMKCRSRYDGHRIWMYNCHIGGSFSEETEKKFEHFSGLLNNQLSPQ
Method in brief: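 Recombinant human LOXL2 or LOXL3 in 1.2 M urea, 50 mM sodium borate pH 8.0, 10 mM CaCl, preincubated with compound 30 min at 37 °C. Cadaverine substrate added; H2O2 detected by HRP/Amplex Red fluorescence, read kinetically for 60 min at 37 °C. Initial-rate slopes, background-subtracted and normalised to DMSO, fitted to a 4-parameter curve with bottom fixed at 0.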

[2] = target: T2, Recombinant human LOXL3 (lysyl oxidase like 3) (Homo sapiens, UniProt P58215); test: LOXL3 inhibition assay, fluorometric (cadaverine / HRP / Amplex Red); type: biochemical; details: recombinant human LOXL3 150 nM; 30 min preincubation at 37° C.; 1 mM cadaverine; read-out: Activity Range LOXL3
T2 construct: purchased R&D systems
T2 sequence (P58215 26-753): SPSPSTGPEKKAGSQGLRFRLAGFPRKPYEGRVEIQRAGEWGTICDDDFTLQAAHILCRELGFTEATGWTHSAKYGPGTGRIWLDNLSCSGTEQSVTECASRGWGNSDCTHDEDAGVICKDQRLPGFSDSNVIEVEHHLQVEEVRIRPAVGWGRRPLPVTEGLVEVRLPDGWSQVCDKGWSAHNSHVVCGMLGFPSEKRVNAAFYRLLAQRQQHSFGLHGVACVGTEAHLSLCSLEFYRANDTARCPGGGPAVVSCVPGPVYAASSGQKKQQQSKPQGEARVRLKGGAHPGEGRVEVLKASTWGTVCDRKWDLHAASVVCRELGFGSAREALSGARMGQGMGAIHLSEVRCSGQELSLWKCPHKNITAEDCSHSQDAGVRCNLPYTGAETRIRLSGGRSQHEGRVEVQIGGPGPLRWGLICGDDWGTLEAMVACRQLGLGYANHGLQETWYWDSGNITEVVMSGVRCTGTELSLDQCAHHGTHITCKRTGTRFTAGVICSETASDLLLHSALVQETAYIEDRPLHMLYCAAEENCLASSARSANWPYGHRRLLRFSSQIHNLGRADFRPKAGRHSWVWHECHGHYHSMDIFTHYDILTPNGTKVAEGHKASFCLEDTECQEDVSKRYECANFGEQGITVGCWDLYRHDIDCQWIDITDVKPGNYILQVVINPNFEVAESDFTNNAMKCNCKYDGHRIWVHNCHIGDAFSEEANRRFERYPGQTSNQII
Method: The ability of compounds to inhibit one or more of the lysyl oxidases LOXL2 and/or LOXL3 was determined using a fluorometric assay. This assay measures the activity of lysyl oxidases by coupling the reaction with horseradish peroxidase-catalyzed […]. The activity assay protocol uses cadaverine as substrate that releases hydrogen peroxide upon transformation by the specific LOX family enzyme present in the sample. Hydrogen peroxide is in turn detected using a red fluorescence substrate for HRP-coupled reactions (Amplex Red Enzyme Assays, Thermo Scientific Fisher). This leads to increase in fluorescence that can be easily detected at Ex/Em=540/590 nm in a fluorescence microplate reader.
Recombinant human LOXL2 (lysyl oxidase like 2) and recombinant human LOXL3 (lysyl oxidase like 3) were purchased from R&D systems and assays were performed in 1.2 M urea, 50 mM sodium borate buffer pH 8.0, and 10 mM CaCl.
5 μl of freshly prepared reaction buffer were delivered to reaction wells. Compounds were resuspended in 100% DMSO at 10 mM and delivered into buffer using acoustic technology (Echo550; nanoliter range). A 3× solution of LOXL2 or LOXL3 in reaction buffer was prepared (“enzyme solution”) and 5 μL of enzyme solution was added into the reaction wells. Buffer only was added to column 1 for no protein control. Reactions were incubated for 30 minutes at 37° C. A 3× mixture of cadaverine, Amplex Red, and HRP (“Substrate/Detection Mix) was prepared and subsequently 5 μL of the mixture added to each reaction well. Progress of reactions was monitored for 60 minutes at 37° C. using Clariostar plate reader (ex 530-12, ems 600-40). For all activity assays, pan-LOX inhibitor CCT365623 (Tang et al, 2017) and LOXL2/LOXL3 inhibitor PAT-1251 (PharmaKea) were included as standards.
For the data analysis, the slope of the linear portion of the progress curve was calculated using Clariostar software. Typical analysis interval was between 8-30 min, but varied between experiments. The background-subtracted signals (No protein wells are considered as background) were converted to % activity relative to DMSO controls. Data was analyzed using GraphPad Prism 4 with “sigmoidal dose-response (variable slope)”; 4 parameters with Hill Slope. Constraints: Bottom=Constant equal to 0. Top=Must be less than 120.

NCc1ccnc(OC[C@@H]2C[C@H](C3CCCCC3)CN(S(=O)(=O)N3CCS(=O)(=O)CC3)C2)c1 (racemic) [Example 235, cis-4-((3-(((4-(Aminomethyl)pyridin-2-yl)oxy)methyl)-5-cyclohexylpiperidin-1-yl)sulfonyl)thiomorpholine 1,1-dioxide 2,2,2-trifluoroacetate]
pIC50 [1]: ≥ 6.30
pIC50 [2]: 6.00 to 6.30

NCc1ccnc(OC[C@@H]2C[C@H](C3CCCCC3)CN2S(=O)(=O)N2CCOCC2)c1 (relative stereo) [Example 239, cis-(2-((4-Cyclohexyl-1-(morpholinosulfonyl)pyrrolidin-2-yl)methoxy)pyridin-4-yl)methanamine 2,2,2-trifluoroacetate]
pIC50 [1]: ≥ 6.30
pIC50 [2]: ≥ 6.30

NCc1ccnc(OC[C@@H]2C[C@@H](C3CCCCC3)CN2S(=O)(=O)N2CCOCC2)c1 [Example 239T, trans-(2-((4-Cyclohexyl-1-(morpholinosulfonyl)pyrrolidin-2-yl)methoxy)pyridin-4-yl)methanamine 2,2,2-trifluoroacetate]
pIC50 [1]: ≥ 6.30
pIC50 [2]: ≥ 6.30
